In brackets after ≈: the same amount, converted by molar mass.
Tests used:
Experiment in all cases: in vitro antibacterial evaluation, MIC by broth dilution
Type in all cases: cell-based
[1] = tested on: Enterococcus sp.; settings: broth dilution, 18 hours at 35° C.
How it was run: (§1)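 Step 1: dilute antibiotic across 64-0.06 μg/mL in Muller-Hinton II […]. Step 2: inoculate at 5×10^5 CFU/mL.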

[2] = tested on: Escherichia coli; settings: 18 hours at 35° C.; for MIC Escherichia coli (ATCC 25922): strain ATCC 25922
How it was run: as §1

[3] = tested on: Staphylococcus sp.; settings: broth dilution, 18 hours at 35° C.
How it was run: as §1

[4] = tested on: Streptococcus sp.; settings: broth dilution, 18 hours at 35° C.
How it was run: as §1

[5] = Enterococcus faecalis (ATCC 29212)
[6] = Enterococcus faecalis (GC 2242)
[7] = Enterococcus faecalis (GC 4552)
[8] = Enterococcus faecalis (GC 4553)
[9] = Enterococcus faecalis (GC 4554)
[10] = inoculum 5×10^5 CFU/mL, strain GC 1131
[11] = Streptococcus agalactiae (GC 4564)
[12] = Streptococcus pneumoniae (GC 4565)

## COC1CCC2(C)C(CCC3C2CCC2(C)C(C(C)CCC4OCC5OC(OC6C(CO)OC(Oc7ccc(CC8NC(=O)C(C(C)c9ccccc9)NC(=O)CNC(=O)C(CO)NC(=O)C(C(O)C9CNC(=N)N9C9OC(CO)C(O)C(O)C9O)NC(=O)C(C(O)C9CNC(=N)N9)NC8=O)cc7)C(O)C6O)C(O)C(O)C5O4)CCC32)C1 (stereo not shown) [Example 130]
[1]; Enterococcus avium (GC 4558)
  MIC Enterococcus avium (GC 4558): 16 µg/mL (≈ 9.69 µM)
[1]; [5]
  MIC Enterococcus faecalis (ATCC 29212): 32 µg/mL (≈ 19.4 µM)
[1]; [6]
  MIC Enterococcus faecalis (GC 2242): 32 µg/mL (≈ 19.4 µM)
[1]; Enterococcus faecalis (GC 2691)
  MIC Enterococcus faecalis (GC 2691): 32 µg/mL (≈ 19.4 µM)
[1]; Enterococcus faecalis (GC 3059)
  MIC Enterococcus faecalis (GC 3059): 64 µg/mL (≈ 38.7 µM)
[1]; [7]
  MIC Enterococcus faecalis (GC 4552): 32 µg/mL (≈ 19.4 µM)
[1]; [8]
  MIC Enterococcus faecalis (GC 4553): 8 µg/mL (≈ 4.84 µM)
[1]; [9]
  MIC Enterococcus faecalis (GC 4554): 32 µg/mL (≈ 19.4 µM)
[1]; Enterococcus faecalis (GC 6189)
  MIC Enterococcus faecalis (GC 6189): 32 µg/mL (≈ 19.4 µM)
[1]; Enterococcus faecium (GC 2243)
  MIC Enterococcus faecium (GC 2243): 8 µg/mL (≈ 4.84 µM)
[1]; Enterococcus faecium (GC 4556)
  MIC Enterococcus faecium (GC 4556): 64 µg/mL (≈ 38.7 µM)
[1]; Enterococcus faecium (GC 4557)
  MIC Enterococcus faecium (GC 4557): 32 µg/mL (≈ 19.4 µM)
[1]; strain ATCC 29212
  MIC Enterococcus faecalis (ATCC 29212): 32 µg/mL (≈ 19.4 µM)
[1]; strain GC 2242
  MIC Enterococcus faecalis (GC 2242): 32 µg/mL (≈ 19.4 µM)
[1]; strain GC 2243
  MIC Enterococcus faecium (GC 2243): 8 µg/mL (≈ 4.84 µM)
[1]; strain GC 2691
  MIC Enterococcus faecalis (GC 2691): 32 µg/mL (≈ 19.4 µM)
[1]; strain GC 3059
  MIC Enterococcus faecalis (GC 3059): 64 µg/mL (≈ 38.7 µM)
[1]; strain GC 4552
  MIC Enterococcus faecalis (GC 4552): 32 µg/mL (≈ 19.4 µM)
[1]; strain GC 4553
  MIC Enterococcus faecalis (GC 4553): 8 µg/mL (≈ 4.84 µM)
[1]; strain GC 4554
  MIC Enterococcus faecalis (GC 4554): 32 µg/mL (≈ 19.4 µM)
[1]; strain GC 4556
  MIC Enterococcus faecium (GC 4556): 64 µg/mL (≈ 38.7 µM)
[1]; strain GC 4557
  MIC Enterococcus faecium (GC 4557): 32 µg/mL (≈ 19.4 µM)
[1]; strain GC 4558
  MIC Enterococcus avium (GC 4558): 16 µg/mL (≈ 9.69 µM)
[1]; strain GC 6189
  MIC Enterococcus faecalis (GC 6189): 32 µg/mL (≈ 19.4 µM)
[2]
  MIC Escherichia coli (ATCC 25922): >64 µg/mL
[2]; strain GC 4559
  MIC Escherichia coli (GC 4559): >64 µg/mL
[2]; strain GC 4560
  MIC Escherichia coli (GC 4560): 64 µg/mL (≈ 38.7 µM)
[3]
  MIC Staphylococcus aureus (ATCC 29213): 32 µg/mL (≈ 19.4 µM)
  MIC Staphylococcus aureus (GC 1131): 32 µg/mL (≈ 19.4 µM)
  MIC Staphylococcus aureus (GC 3051): 32 µg/mL (≈ 19.4 µM)
  MIC Staphylococcus aureus (GC 3053): 32 µg/mL (≈ 19.4 µM)
  MIC Staphylococcus aureus (GC 4541): 32 µg/mL (≈ 19.4 µM)
  MIC Staphylococcus aureus (GC 4542): 32 µg/mL (≈ 19.4 µM)
  MIC Staphylococcus aureus (GC 4544): 32 µg/mL (≈ 19.4 µM)
  MIC Staphylococcus aureus (GC 4545): 32 µg/mL (≈ 19.4 µM)
[3]; [10]
  MIC Staphylococcus aureus (GC 1131): 32 µg/mL (≈ 19.4 µM)
[3]; strain ATCC 29213
  MIC Staphylococcus aureus (ATCC 29213): 32 µg/mL (≈ 19.4 µM)
[3]; strain GC 3051
  MIC Staphylococcus aureus (GC 3051): 32 µg/mL (≈ 19.4 µM)
[3]; strain GC 3053
  MIC Staphylococcus aureus (GC 3053): 32 µg/mL (≈ 19.4 µM)
[3]; strain GC 4541
  MIC Staphylococcus aureus (GC 4541): 32 µg/mL (≈ 19.4 µM)
[3]; strain GC 4542
  MIC Staphylococcus aureus (GC 4542): 32 µg/mL (≈ 19.4 µM)
[3]; strain GC 4543
  MIC Staphylococcus aureus-SMITH (GC 4543): 32 µg/mL (≈ 19.4 µM)
[3]; strain GC 4544
  MIC Staphylococcus aureus (GC 4544): 32 µg/mL (≈ 19.4 µM)
[3]; strain GC 4545
  MIC Staphylococcus aureus (GC 4545): 32 µg/mL (≈ 19.4 µM)
[3]; strain GC 4546
  MIC Staphylococcus haemolyticus (GC 4546): 32 µg/mL (≈ 19.4 µM)
[3]; strain GC 4547
  MIC Coagulase Negative Staphylococcus (GC 4547): 32 µg/mL (≈ 19.4 µM)
[3]; strain GC 4548
  MIC Coagulase Negative Staphylococcus (GC 4548): 32 µg/mL (≈ 19.4 µM)
[3]; strain GC 4549
  MIC Coagulase Negative Staphylococcus (GC 4549): 16 µg/mL (≈ 9.69 µM)
[3]; strain GC 4551
  MIC Coagulase Negative Staphylococcus (GC 4551): 32 µg/mL (≈ 19.4 µM)
[3]; strain GC 6257
  MIC Coagulase Negative Staphylococcus (GC 6257): 32 µg/mL (≈ 19.4 µM)
[3]; strain SMITH GC 4543
  MIC Staphylococcus aureus-SMITH (GC 4543): 32 µg/mL (≈ 19.4 µM)
[4]; [11]
  MIC Streptococcus agalactiae (GC 4564): 8 µg/mL (≈ 4.84 µM)
[4]; Streptococcus pneumoniae (ATCC 6301)
  MIC Streptococcus pneumoniae (ATCC 6301): 8 µg/mL (≈ 4.84 µM)
[4]; Streptococcus pneumoniae (GC 1894)
  MIC Streptococcus pneumoniae (GC 1894): 1 µg/mL (≈ 0.605 µM)
[4]; [12]
  MIC Streptococcus pneumoniae (GC 4565): 4 µg/mL (≈ 2.42 µM)
[4]; Streptococcus pyogenes (GC 4563)
  MIC Streptococcus pyogenes (GC 4563): 16 µg/mL (≈ 9.69 µM)
[4]; strain ATCC 6301
  MIC Streptococcus pneumoniae (ATCC 6301): 8 µg/mL (≈ 4.84 µM)
[4]; strain GC 1894
  MIC Streptococcus pneumoniae (GC 1894): 1 µg/mL (≈ 0.605 µM)
[4]; strain GC 4563
  MIC Streptococcus pyogenes (GC 4563): 16 µg/mL (≈ 9.69 µM)
[4]; strain GC 4564
  MIC Streptococcus agalactiae (GC 4564): 8 µg/mL (≈ 4.84 µM)
[4]; strain GC 4565
  MIC Streptococcus pneumoniae (GC 4565): 4 µg/mL (≈ 2.42 µM)

## CC(c1ccccc1)C1NC(=O)CNC(=O)C(CO)NC(=O)C(C(O)C2CNC(=N)N2C2OC(CO)C(O)C(O)C2O)NC(=O)C(C(O)C2CNC(=N)N2)NC(=O)C(Cc2ccc(OC3OC(CO)C(OC4OC5COC(CC(C)(C)C)OC5C(O)C4O)C(O)C3O)cc2)NC1=O (stereo not drawn) [Example 110, Cyclo[glycyl-β-methylphenylalanyl-O-[4-O-[4,6-O-(3,3-dimethylbutylidene)hexopyranosyl]-hexopyranosyl]tyrosyl-3-(2-iminoimidazolidin-4-yl)seryl-3-(3-hexopyranosyl-2-iminoimidazolidin-4-yl)serylseryl]]
[1]; Enterococcus avium (GC 4558)
  MIC Enterococcus avium (GC 4558): 4 µg/mL (≈ 2.9 µM)
[1]; [5]
  MIC Enterococcus faecalis (ATCC 29212): 4 µg/mL (≈ 2.9 µM)
[1]; [6]
  MIC Enterococcus faecalis (GC 2242): 2 µg/mL (≈ 1.45 µM)
[1]; [7]
  MIC Enterococcus faecalis (GC 4552): 4 µg/mL (≈ 2.9 µM)
[1]; [8]
  MIC Enterococcus faecalis (GC 4553): 4 µg/mL (≈ 2.9 µM)
[1]; [9]
  MIC Enterococcus faecalis (GC 4554): 2 µg/mL (≈ 1.45 µM)
[1]; Enterococcus faecium (GC 2243)
  MIC Enterococcus faecium (GC 2243): 4 µg/mL (≈ 2.9 µM)
[1]; Enterococcus faecium (GC 4556)
  MIC Enterococcus faecium (GC 4556): 2 µg/mL (≈ 1.45 µM)
[1]; Enterococcus faecium (GC 4557)
  MIC Enterococcus faecium (GC 4557): 2 µg/mL (≈ 1.45 µM)
[1]; strain ATCC 29212
  MIC Enterococcus faecalis (ATCC 29212): 4 µg/mL (≈ 2.9 µM)
[1]; strain GC 2242
  MIC Enterococcus faecalis (GC 2242): 2 µg/mL (≈ 1.45 µM)
[1]; strain GC 2243
  MIC Enterococcus faecium (GC 2243): 4 µg/mL (≈ 2.9 µM)
[1]; strain GC 4552
  MIC Enterococcus faecalis (GC 4552): 4 µg/mL (≈ 2.9 µM)
[1]; strain GC 4553
  MIC Enterococcus faecalis (GC 4553): 4 µg/mL (≈ 2.9 µM)
[1]; strain GC 4554
  MIC Enterococcus faecalis (GC 4554): 2 µg/mL (≈ 1.45 µM)
[1]; strain GC 4556
  MIC Enterococcus faecium (GC 4556): 2 µg/mL (≈ 1.45 µM)
[1]; strain GC 4557
  MIC Enterococcus faecium (GC 4557): 2 µg/mL (≈ 1.45 µM)
[1]; strain GC 4558
  MIC Enterococcus avium (GC 4558): 4 µg/mL (≈ 2.9 µM)
[2]
  MIC Escherichia coli (ATCC 25922): 64 µg/mL (≈ 46.5 µM)
[3]
  MIC Coagulase Negative Staphylococcus (GC 4547): 1 µg/mL (≈ 0.726 µM)
  MIC Coagulase Negative Staphylococcus (GC 4548): 1 µg/mL (≈ 0.726 µM)
  MIC Coagulase Negative Staphylococcus (GC 4549): 1 µg/mL (≈ 0.726 µM)
  MIC Coagulase Negative Staphylococcus (GC 4551): 1 µg/mL (≈ 0.726 µM)
  MIC Coagulase Negative Staphylococcus (ID-3941): 1 µg/mL (≈ 0.726 µM)
  MIC Staphylococcus aureus (ATCC 29213): 1 µg/mL (≈ 0.726 µM)
  MIC Staphylococcus aureus (GC 1131): 1 µg/mL (≈ 0.726 µM)
  MIC Staphylococcus aureus (GC 4541): 1 µg/mL (≈ 0.726 µM)
  MIC Staphylococcus aureus (GC 4542): 1 µg/mL (≈ 0.726 µM)
  MIC Staphylococcus aureus (GC 4544): 2 µg/mL (≈ 1.45 µM)
  MIC Staphylococcus aureus (GC 4545): 1 µg/mL (≈ 0.726 µM)
  MIC Staphylococcus aureus-SMITH (GC 4543): 1 µg/mL (≈ 0.726 µM)
  MIC Staphylococcus haemolyticus (GC 4546): 1 µg/mL (≈ 0.726 µM)
[3]; [10]
  MIC Staphylococcus aureus (GC 1131): 1 µg/mL (≈ 0.726 µM)
[3]; strain ATCC 29213
  MIC Staphylococcus aureus (ATCC 29213): 1 µg/mL (≈ 0.726 µM)
[3]; strain GC 4541
  MIC Staphylococcus aureus (GC 4541): 1 µg/mL (≈ 0.726 µM)
[3]; strain GC 4542
  MIC Staphylococcus aureus (GC 4542): 1 µg/mL (≈ 0.726 µM)
[3]; strain GC 4544
  MIC Staphylococcus aureus (GC 4544): 2 µg/mL (≈ 1.45 µM)
[3]; strain GC 4545
  MIC Staphylococcus aureus (GC 4545): 1 µg/mL (≈ 0.726 µM)
[3]; strain GC 4546
  MIC Staphylococcus haemolyticus (GC 4546): 1 µg/mL (≈ 0.726 µM)
[3]; strain GC 4547
  MIC Coagulase Negative Staphylococcus (GC 4547): 1 µg/mL (≈ 0.726 µM)
[3]; strain GC 4548
  MIC Coagulase Negative Staphylococcus (GC 4548): 1 µg/mL (≈ 0.726 µM)
[3]; strain GC 4549
  MIC Coagulase Negative Staphylococcus (GC 4549): 1 µg/mL (≈ 0.726 µM)
[3]; strain GC 4551
  MIC Coagulase Negative Staphylococcus (GC 4551): 1 µg/mL (≈ 0.726 µM)
[3]; strain ID-3941
  MIC Coagulase Negative Staphylococcus (ID-3941): 1 µg/mL (≈ 0.726 µM)
[3]; strain SMITH GC 4543
  MIC Staphylococcus aureus-SMITH (GC 4543): 1 µg/mL (≈ 0.726 µM)
[4]; [11]
  MIC Streptococcus agalactiae (GC 4564): <0.5 µg/mL
[4]; [12]
  MIC Streptococcus pneumoniae (GC 4565): <0.5 µg/mL
[4]; Streptococcus pyogenes (ID-3187)
  MIC Streptococcus pyogenes (ID-3187): <0.5 µg/mL
[4]; strain GC 4564
  MIC Streptococcus agalactiae (GC 4564): <0.5 µg/mL
[4]; strain GC 4565
  MIC Streptococcus pneumoniae (GC 4565): <0.5 µg/mL
[4]; strain ID-3187
  MIC Streptococcus pyogenes (ID-3187): <0.5 µg/mL
